# Patent US20070093520A1, “Method of treatment of diarrhea-predominant irritable bowel syndrome in a subject” (priority 2005, published 2007)
# Read-outs that look alike come from different tables or passages of the source.
# Test system: diarrhea-predominant IBS subjects
# Type: in vivo, human
# Settings: for TEAE incidence: constipation / TEAE incidence: nausea: 3007 Study
# Experimental: The study was performed in approximately 150 study centers. Approximately 1600 eligible subjects were to be given cilansetron 2 mg TID. At Visit 1, pre-treatment assessments were conducted. […] Subjects were to return to the study site one month later for Visit 3 (Day 31) for their first interim assessment. […] All subjects who discontinued from the study were to have the same post-study assessments required at Visit 7 performed at their early termination visit. […]
# Stool specimens were analyzed at every visit for occult blood. An independent GERB had been established to provide advice on GI AEs during the course of the study.
# Adverse events were assessed at Baseline, at each clinic visit, and at the end of the study (Month 12 or the early termination visit). All AEs, which occurred during the study were followed up in accordance with good medical practice until resolved or judged no longer clinically significant, or if a condition was chronic, until fully characterized. Adverse events could occur in the specified follow-up period and, regardless of the interval since the last administration of the study medication, were treated in the same manner as an AE which occurred during the treatment with study medication. Each AE was evaluated for duration, severity, seriousness, and causal relationship to the investigational drug. The action taken and the outcome were also recorded.
# Specifically, subjects who were lost to follow-up and had no post-Baseline contact with the site were excluded from the Safety population. The subjects who discontinued from the study due to lost to follow-up were identified based on the information collected on the study termination CRF page.
# After the pretreatment assessment at Visit 1 (Days […] to −3), subjects were to return to the study site for a Baseline assessment and start the treatment at Visit 2 (Day 1).
# For the by time-interval analyses of disposition, prevalence of AEs, and of markedly abnormal and predefined changes in laboratory values, vital signs, and ECGs, the following interval windows were used:
# Adverse events that were already present prior to the first dose of cilansetron study medication but increased in severity afterwards were considered as treatment-emergent.
# The 5% cutoff point was based on the incidence within higher level terms.
# Subjects were counted at most once for each primary system organ class and preferred term. Serious AEs that resolved prior to receiving study medication or occurred more than 30 days after the last dose of study medication were not included in the incidence tables. A listing of all SAEs is presented; SAEs with onset prior to receiving study medication or more than 30 days after discontinuation of study medication were flagged. The listing presents lower level term and preferred term of the SAE, severity, action taken, outcome, and relationship of the SAE, start and stop date of the SAE, study day of onset of the SAE, age, race, and sex.
# [1] = 2 mg, Safety Population, 3008, under Neoplasms Benign, Malignant and Unspecified
# [2] = 2 mg, Safety Population, 3008, under Pregnancy, Puerperium and Perinatal Conditions
# [3] = 2 mg, Safety Population, 3008, under Social Circumstances
# [4] = 2 mg, Safety Population, 3008, under Surgical and Medical Procedures
# [5] = 2 mg, Safety Population, 3008, under Vascular Disorders
smiles,measurement,setting,value
"Cc1nccn1C[C@H]1CCc2c(c3cccc4c3n2CCC4)C1=O [cilansetron, (R)-(−)-4,5,6,8,9,10-hexahydro-10-[(2-methyl-1H-imidazol-1-yl)methyl]-11H-pyrido-[3,2,1-jk]-carbazol-11-one]",TEAE incidence: Haemangioma of Liver,[1],2 (<1%) n (%)
same,TEAE incidence: Hepatobiliary Neoplasms Benign,[1],2 (<1%) n (%)
same,TEAE incidence: Large Cell Carcinoma of the Respiratory Tract Stage Unspecified,[1],1 (<1%) n (%)
same,TEAE incidence: Lip and Oral Cavity Neoplasms Benign,[1],1 (<1%) n (%)
same,TEAE incidence: Lipoma NOS,[1],2 (<1%) n (%)
same,TEAE incidence: Lung Adenocarcinoma NOS,[1],1 (<1%) n (%)
same,TEAE incidence: Non-Hodgkin's Lymphoma NOS,[1],1 (<1%) n (%)
same,TEAE incidence: Non-Hodgkin's Lymphomas NEC,[1],1 (<1%) n (%)
same,TEAE incidence: Non-Small Cell Neoplasms Malignant of the Respiratory Tract Cell Type Specified,[1],2 (<1%) n (%)
same,TEAE incidence: Pancreatic Carcinoma NOS,[1],1 (<1%) n (%)
same,TEAE incidence: Pancreatic Neoplasms Malignant (Excl Islet Cell and Carcinoid),[1],1 (<1%) n (%)
same,TEAE incidence: Rectal Cancer NOS,[1],1 (<1%) n (%)
same,TEAE incidence: Rectal Neoplasms Malignant,[1],1 (<1%) n (%)
same,TEAE incidence: Salivary Gland Adenoma,[1],1 (<1%) n (%)
same,TEAE incidence: Soft Tissue Neoplasms Benign NEC,[1],2 (<1%) n (%)
same,TEAE incidence: Urinary Tract Neoplasms Benign,[1],1 (<1%) n (%)
same,TEAE incidence: Urinary Tract Neoplasms Unspecified Malignancy NEC,[1],1 (<1%) n (%)
same,TEAE incidence: Uterine Fibroids*,[1],3 (<1%) n (%)
same,TEAE incidence: Uterine Neoplasms Benign*,[1],3 (<1%) n (%)
same,"TEAE incidence: Normal Pregnancy, Labour and Delivery*",[2],2 (<1%) n (%)
same,TEAE incidence: Pregnancy NOS*,[2],2 (<1%) n (%)
same,TEAE incidence: Genital Haemorrhage NOS,"2 mg, Safety Population, 3008, under Reproductive Tract Disorders NEC (Excl Neoplasms)",1 (<1%) n (%)
same,TEAE incidence: Age Related Issues,[3],3 (<1%) n (%)
same,TEAE incidence: Menopause*,[3],3 (<1%) n (%)
same,TEAE incidence: Bone Therapeutic Procedures NEC,[4],1 (<1%) n (%)
same,TEAE incidence: Fallopian Tube Therapeutic Procedures*,[4],1 (<1%) n (%)
same,TEAE incidence: Osteosynthesis,[4],1 (<1%) n (%)
same,TEAE incidence: Tubal Ligation*,[4],1 (<1%) n (%)
same,"TEAE incidence: Bruising, Ecchymosis and Purpura",[5],1 (<1%) n (%)
same,TEAE incidence: Circulatory Collapse and Shock,[5],1 (<1%) n (%)
same,TEAE incidence: Essential Hypertension,[5],1 (<1%) n (%)
same,TEAE incidence: Hypertension Aggravated,[5],4 (<1%) n (%)
same,TEAE incidence: Hypertension NOS,[5],15 (1%) n (%)
same,TEAE incidence: Non-Site Specific Vascular Disorders NEC,[5],1 (<1%) n (%)
same,TEAE incidence: Orthostatic Hypotension,[5],3 (<1%) n (%)
same,TEAE incidence: Peripheral Embolism and Thrombosis,[5],1 (<1%) n (%)
same,TEAE incidence: Periphlebitis,[5],1 (<1%) n (%)
same,TEAE incidence: Petechiae,[5],1 (<1%) n (%)
same,TEAE incidence: Phlebitis NEC,[5],4 (<1%) n (%)
same,TEAE incidence: Phlebitis NOS,[5],2 (<1%) n (%)
same,TEAE incidence: Phlebitis Superficial,[5],1 (<1%) n (%)
same,TEAE incidence: Shock,[5],1 (<1%) n (%)
same,TEAE incidence: Varicose Veins NOS,[5],1 (<1%) n (%)
same,TEAE incidence: Varicose Veins Non-Site Specific,[5],1 (<1%) n (%)
same,TEAE incidence: Vascular Disorder NOS,[5],1 (<1%) n (%)
same,TEAE incidence: Vascular Hypertensive Disorders NEC,[5],20 (1%) n (%)
same,TEAE incidence: Vascular Hypotensive Disorders,[5],3 (<1%) n (%)
same,TEAE incidence: Venous Thrombosis Deep Limb,[5],1 (<1%) n (%)
same,TEAE incidence: constipation,all subjects,15%
same,TEAE incidence: nausea,all subjects,5%
same,TEAE incidence: constipation,females,19%
same,TEAE incidence: nausea,females,7%
same,TEAE incidence: constipation,males,11%
same,TEAE incidence: nausea,males,3%
same,TEAE incidence: Abdominal Discomfort,"Cilansetron 2 mg, N=1454",6 (<1%) n (%)
same,TEAE incidence: Abdominal Distension,"Cilansetron 2 mg, N=1454",57 (4%) n (%)
same,TEAE incidence: Abdominal Findings Abnormal,"Cilansetron 2 mg, N=1454",2 (<1%) n (%)
same,"TEAE incidence: Abdominal Hernias, Site Unspecified","Cilansetron 2 mg, N=1454",1 (<1%) n (%)
same,TEAE incidence: Abdominal Pain Aggravated,"Cilansetron 2 mg, N=1454",8 (<1%) n (%)
same,TEAE incidence: Abdominal Pain Lower,"Cilansetron 2 mg, N=1454",21 (1%) n (%)
same,TEAE incidence: Abdominal Pain Upper,"Cilansetron 2 mg, N=1454",50 (3%) n (%)
same,TEAE incidence: Abdominal Rigidity,"Cilansetron 2 mg, N=1454",1 (<1%) n (%)
same,TEAE incidence: Abnormal Sleep-Related Events,"Cilansetron 2 mg, N=1454",1 (<1%) n (%)
same,TEAE incidence: Abscess Limb,"Cilansetron 2 mg, N=1454",1 (<1%) n (%)
same,TEAE incidence: Abscess NOS,"Cilansetron 2 mg, N=1454",1 (<1%) n (%)
same,TEAE incidence: Absence Seizures,"Cilansetron 2 mg, N=1454",1 (<1%) n (%)
same,TEAE incidence: Acute and Chronic Pancreatitis,"Cilansetron 2 mg, N=1454",1 (<1%) n (%)
same,TEAE incidence: Aerophagia,"Cilansetron 2 mg, N=1454",1 (<1%) n (%)
same,TEAE incidence: Alanine Aminotransferase Increased,"Cilansetron 2 mg, N=1454",19 (1%) n (%)
same,TEAE incidence: Anal Abscess,"Cilansetron 2 mg, N=1454",1 (<1%) n (%)
same,TEAE incidence: Anal Discomfort,"Cilansetron 2 mg, N=1454",3 (<1%) n (%)
same,TEAE incidence: Anal Fissure,"Cilansetron 2 mg, N=1454",5 (<1%) n (%)
same,TEAE incidence: Anal Haemorrhage,"Cilansetron 2 mg, N=1454",2 (<1%) n (%)
same,TEAE incidence: Anal Ulcer,"Cilansetron 2 mg, N=1454",1 (<1%) n (%)
same,TEAE incidence: Anal and Colorectal Neoplasms NEC,"Cilansetron 2 mg, N=1454",1 (<1%) n (%)
same,TEAE incidence: Anal and Rectal Disorders NEC,"Cilansetron 2 mg, N=1454",8 (<1%) n (%)
same,TEAE incidence: Anal and Rectal Pains,"Cilansetron 2 mg, N=1454",7 (<1%) n (%)
same,TEAE incidence: Anal and Rectal Signs and Symptoms,"Cilansetron 2 mg, N=1454",7 (<1%) n (%)
same,TEAE incidence: Anal and Rectal Ulcers and Perforation,"Cilansetron 2 mg, N=1454",2 (<1%) n (%)
same,TEAE incidence: Antibiotic Associated Colitis,"Cilansetron 2 mg, N=1454",1 (<1%) n (%)
same,TEAE incidence: Aphthous Stomatitis,"Cilansetron 2 mg, N=1454",1 (<1%) n (%)
same,TEAE incidence: Appendiceal Abscess,"Cilansetron 2 mg, N=1454",1 (<1%) n (%)
same,TEAE incidence: Appendicitis,"Cilansetron 2 mg, N=1454",1 (<1%) n (%)
same,TEAE incidence: Arterial Pressure NOS Increased,"Cilansetron 2 mg, N=1454",1 (<1%) n (%)
same,TEAE incidence: Aspartate Aminotransferase Increased,"Cilansetron 2 mg, N=1454",16 (1%) n (%)
same,TEAE incidence: Benign Oral Cavity Neoplasms,"Cilansetron 2 mg, N=1454",1 (<1%) n (%)
same,TEAE incidence: Bilirubin Urine,"Cilansetron 2 mg, N=1454",1 (<1%) n (%)
same,TEAE incidence: Blood Alkaline Phosphatase NOS Increased,"Cilansetron 2 mg, N=1454",7 (<1%) n (%)
same,TEAE incidence: Blood Bilirubin Increased,"Cilansetron 2 mg, N=1454",5 (<1%) n (%)
same,TEAE incidence: Blood Bilirubin Unconjugated Increased,"Cilansetron 2 mg, N=1454",1 (<1%) n (%)
same,TEAE incidence: Blood Cholesterol Increased,"Cilansetron 2 mg, N=1454",25 (2%) n (%)
same,TEAE incidence: Blood Creatine Phosphokinase Increased,"Cilansetron 2 mg, N=1454",31 (2%) n (%)
same,TEAE incidence: Blood Creatinine Increased,"Cilansetron 2 mg, N=1454",1 (<1%) n (%)
same,TEAE incidence: Blood Glucose Increased,"Cilansetron 2 mg, N=1454",2 (<1%) n (%)
same,TEAE incidence: Blood Potassium Increased,"Cilansetron 2 mg, N=1454",3 (<1%) n (%)
same,TEAE incidence: Blood Pressure,"Cilansetron 2 mg, N=1454",1 (<1%) n (%)
same,TEAE incidence: Blood Pressure Increased,"Cilansetron 2 mg, N=1454",5 (<1%) n (%)
same,TEAE incidence: Blood Thyroid Stimulating Hormone Increased,"Cilansetron 2 mg, N=1454",2 (<1%) n (%)
same,TEAE incidence: Blood Triglycerides Increased,"Cilansetron 2 mg, N=1454",11 (<1%) n (%)
same,TEAE incidence: Blood Urea Increased,"Cilansetron 2 mg, N=1454",2 (<1%) n (%)
same,TEAE incidence: Blood Uric Acid Increased,"Cilansetron 2 mg, N=1454",7 (<1%) n (%)
same,TEAE incidence: Blood Urine Present,"Cilansetron 2 mg, N=1454",11 (<1%) n (%)
same,TEAE incidence: Blood in Stool,"Cilansetron 2 mg, N=1454",13 (<1%) n (%)
same,TEAE incidence: Body Temperature Decreased,"Cilansetron 2 mg, N=1454",2 (<1%) n (%)
same,TEAE incidence: Body Temperature Increased,"Cilansetron 2 mg, N=1454",5 (<1%) n (%)
same,TEAE incidence: Body Tinea,"Cilansetron 2 mg, N=1454",2 (<1%) n (%)
same,TEAE incidence: Bowel Sounds Abnormal,"Cilansetron 2 mg, N=1454",1 (<1%) n (%)
same,TEAE incidence: Bronchitis Acute NOS,"Cilansetron 2 mg, N=1454",24 (2%) n (%)
same,TEAE incidence: Bronchitis Chronic NOS,"Cilansetron 2 mg, N=1454",2 (<1%) n (%)
same,TEAE incidence: Bronchitis NOS,"Cilansetron 2 mg, N=1454",27 (2%) n (%)
same,TEAE incidence: Bronchopneumonia NOS,"Cilansetron 2 mg, N=1454",1 (<1%) n (%)
same,TEAE incidence: Burning Sensation NOS,"Cilansetron 2 mg, N=1454",1 (<1%) n (%)
same,TEAE incidence: Campylobacter Gastroenteritis,"Cilansetron 2 mg, N=1454",1 (<1%) n (%)
